According to patent US10912767B2, “Anthracycline prodrugs and methods of making and using the same” (THE REGENTS OF THE UNIVERSITY OF COLORADO, priority 2015, dated 2021):
Read-outs that look alike come from different tables or passages of the source.

Assays:
[1] = Photolysis timecourses, near UV blacklight 350 nm, HPLC; format: physicochemical
Description: (§1) In order to investigate the photolysis of the drugs in a system amenable to cell culture use, a custom UV irradiation apparatus was constructed, consisting of 3 small blacklight fluorescent bulbs (Southern New England Ultraviolet Co., λmax=350 nm) set between two ring stands and suspended at a height of 11.5 cm. The bulbs' housing was reflective aluminum so as to direct as much UV irradiation as possible downward toward the plate. Upon installation in sterile cell culture hood, the power of the system was measured at approximately 6-7 mW using a Scientech laser power meter. Prior to experimentation, the hood and irradiation apparatus was sterilized with 254 nm germicidal UV irradiation overnight. Using this setup, 100 μM of 4,5-dimethoxy-2-nitrobenyl alcohol (DMNA), photodoxazolidine R═H, and glucose-PEG-photodoxazoldine were irradiated in individual wells of a 24-well plate. Initially, 50 μL of a DMSO stock was diluted with 950 μL of PBS and aliquots of 50 μL were removed at various times (0-180 min), mixing by pipetting each time. The timepoints were analyzed by HPLC (method 2) and plotted as fractional conversion versus time. […] Therefore, a second experiment was performed in which the PBS was replaced with 1:1 acetonitrile:water. With this system of 5% DMSO/47.5% acetonitrile/47.5% water, no visible precipitation was produced over the course of the reaction.
The measured quantum yield of 0.002 for photodoxazolidine R═H (above) was lower than expected, which raised the possibility that the presence of the anthraquinone ring complex in the prodrugs was inhibiting photocleavage by quenching the activated state. To test whether this, the irradiation kinetics of DMNA (4, 5-dimethoxy-2-nitrobenzyl alcohol) was compared against photodoxazolidine R═H, which contains the DMNA unit as the photoactivating group. Additionally, glucose-PEG-photodoxazoldine was included for comparison; a synthetic precursor to this compound, azido-PEG-photodoxazolidine, is suspected of having a quantum yield of 0.01-0.02, which is 5-10-fold larger than photodoxazolidine. Irradiation was performed in 24-well cell culture dishes using the cell culture irradiation system described above with the soft-glass high-pass filter. […] In both cases, photodoxazolidine was the slowest to produce dox from the irradiation. In line with its quantum yield, glucose-PEG-photodoxazolidine reacted 4-5-fold faster than photodoxazolidine. However, DMNA was by far the fastest to undergo photochemistry in this system, converting to product approximately 30-fold faster than photodoxazolidine.

[2] = system: MDA-MB-231 breast cancer cells; test: Tumor cell growth inhibition, crystal violet (Example 2); format: cell-based, human; details: for IC50: read-out: IC50
Description: as §1
The ovarian carcinoma line NCl/ADR-RES (ADR) was grown in high-glucose Dulbecco's Modified Eagle Medium (DMEM) supplemented with 10% fetal bovine serum (FBS), 200 units/mL of penicillin and 200 μg/mL of streptomycin. The breast carcinoma line MDA-MB-231 was cultured in low-glucose DMEM with the same additives. Both lines were maintained in a humidified incubator with 5% CO2/95% air at 37° C. UV irradiations were performed with the apparatus described above.
Growth inhibition experiments were performed by seeding cells into 96-well plates or 24-well plates at densities of 1000-1500 cells per well or 8000 cells per well, respectively, and allowing the cells to adhere overnight. The media was then replaced with a range of aqueous concentrations of the drug in question and allowed to incubate at 37° C. with the cells for a span of time (Inc1) which ranged from 1 min to 48 hours. Irradiation was performed at room temperature with the plate's lid removed and ranged from 1 to 30 min. In some experiments, the drug solution was removed following Inc1 and irradiated in clean media or PBS. Following irradiation, the cells were placed back into the 37° C. incubator for a second period of incubation (Inc2), which varied between 1 min and 24 h, prior to replacement with fresh media. Plates which received no irradiation but identical treatment otherwise were done in parallel. The cells were then grown until the no-drug control wells reached approximately 80% confluence or 5 days, whichever was shorter. […] The cells were fixed with 5% formalin in PBS, stained with crystal violet, washed with tap water, and air-dried. The stain was resolubilized in 50% isopropyl alcohol, 50% H2O containing 2% (w/v) SDS. The staining density was read on a multiwell plate reader at 588-600 nm. Percentage cell density was calculated relative to the irradiated no-drug control wells, plotted as a function of drug concentration, and fit using non-linear least squared analysis with a variable-slope dose response model in GraphPad Prism 5.0 software.
Although the introduction of a long-pass glass filter between the light source and the plate alleviated this effect to a small extent, a maximum irradiation time of 10 min was settled upon. […] Since a media change at that point would remove the cells as well, the re-adherence of the cell population was accomplished by the addition of a large volume (200 μL) of complete media following Inc2, and overnight incubation. Then, a full media change was done to remove the drug. […]

## COc1cc(COC(=O)N2COC3C(C)OC(OC4CC(O)(C(=O)CO)Cc5c(O)c6c(c(O)c54)C(=O)c4c(OC)cccc4C6=O)CC32)c([N+](=O)[O-])cc1OC (centres unmarked) [Photodoxazolidine]
[1]; 100 μM, 1:1 acetonitrile:water, near UV 350 nm
  k in ACN: H2O, relative rate constant for photocleavage: 0.0069 min⁻¹
[1]; 100 μM, PBS, near UV 350 nm
  k in PBS, relative rate constant for photocleavage: 0.0026 min⁻¹
[1]; 1:1 acetonitrile:water
  k in ACN: H2O, fold over photodoxazolidine: (1.0)
[1]; PBS
  k in PBS, fold over photodoxazolidine: (1.0)
[2]; MDA-MB-231, 10 min UV vs alone
  fold drop of IC50 on near UV irradiation: approximately 22 fold
[2]; MDA-MB-231, +UV 10 min, near UV 350 nm
  IC50: 73 nM
[2]; MDA-MB-231, prodrug alone, no UV, listed as Photodoxaz
  IC50: 1600 ± 120 nM
[2]; MDA-MB-231, prodrug alone, no UV, listed as photodoxazolidine
  IC50: ~1600 nM
